Like-named read-outs stand apart in the source and are kept apart here.
How the values were obtained:
Assay type in all cases: biochemical
dopamine (DA) transport [1] = target: T1, dopamine (DA) transport (Rattus norvegicus, UniProt P23977); assay: Inhibition of [3H]DA uptake in rat striatum synaptosomes; design: synaptosomal preparations were made from either whole brain (5-HT), striatum (DA) or hypothalamus (NE); from tissue; host or cells: rat striatum synaptosomes; details: for inhibition at 0.5 µM: read-out: Uptake Inhibition % at 500 nM DA; for Uptake Inhibition % at 500 nM DA: 500 nM test compound, 15 min at 37° C.
Method: (§1) The effects of arylbicyclo[3.1.0]hexylamines of the invention for inhibiting transport of norepinephrine (NE) and/or dopamine (DA) and/or serotonin (5-HT) were evaluated using preparations of synaptosomes from different regions of the rat brain according to previously-reported techniques.
(§2) Whole brains were obtained from normal rats, and synaptosomal preparations were made from either whole brain (5-HT), striatum (DA) or hypothalamus (NE) by gentle disruption in 10 volumes (w/v) of 0.32 M sucrose (0-4° C.) using a Teflon-glass homogenizer. The homogenate was then centrifuged at 1000×g for 10 min. The supernatant was retained and centrifuged at 23000 g for 20 min. The resulting pellet was gently resuspended in 200 volumes of 0.32 M sucrose (0-4° C.) using a teflon-glass homogenizer. Aliquots (250 μL) of this preparation were added to tubes, along with 0.2 μCi/mL of [^3H]5-HT, [^3H]DA, or [^3H]NE, 200 μL of selected 1-arylbicyclo[3.1.0]hexanamine test compounds ([…]) and 1 mL of Krebs-Ringer bicarbonate buffer (pH 7.4). […] At the end of this period, the assay was terminated by rapid filtration over Whatman GF/C glass fiber filters. The filters were rinsed 3 times with 4 ml of Krebs-Ringer bicarbonate buffer (0-4° C.), and the radioactivity retained on the filters was measured by liquid scintillation spectrometry.
Target sequence in this assay (P23977 whole entry): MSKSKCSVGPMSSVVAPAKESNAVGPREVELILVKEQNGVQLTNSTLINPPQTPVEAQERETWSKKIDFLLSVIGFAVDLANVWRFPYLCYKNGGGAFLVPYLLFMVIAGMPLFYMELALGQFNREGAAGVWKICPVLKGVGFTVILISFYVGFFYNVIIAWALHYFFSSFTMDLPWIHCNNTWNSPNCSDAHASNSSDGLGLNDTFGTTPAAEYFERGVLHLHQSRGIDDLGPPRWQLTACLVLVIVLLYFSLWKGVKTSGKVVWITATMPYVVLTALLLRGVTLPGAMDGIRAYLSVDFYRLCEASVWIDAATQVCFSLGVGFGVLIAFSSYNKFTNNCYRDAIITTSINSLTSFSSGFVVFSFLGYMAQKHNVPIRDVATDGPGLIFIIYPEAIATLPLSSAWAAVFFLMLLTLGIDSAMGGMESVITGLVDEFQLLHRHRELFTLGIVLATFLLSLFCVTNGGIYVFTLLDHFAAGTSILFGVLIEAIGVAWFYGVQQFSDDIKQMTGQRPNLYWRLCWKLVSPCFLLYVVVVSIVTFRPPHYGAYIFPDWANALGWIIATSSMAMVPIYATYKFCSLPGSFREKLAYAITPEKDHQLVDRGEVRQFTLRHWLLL

[2] = target: T2, serotonin (5-HT) transport (Rattus norvegicus, UniProt P31652); assay: Inhibition of [3H]5-HT uptake in rat whole brain synaptosomes; details: for inhibition at 0.5 µM: read-out: Uptake Inhibition % at 500 nM 5-HT; for Uptake Inhibition % at 500 nM 5-HT: 500 nM test compound, rat whole brain synaptosomes, [3H]5-HT, 15 min at 37° C.
T2 sequence (P31652 whole entry): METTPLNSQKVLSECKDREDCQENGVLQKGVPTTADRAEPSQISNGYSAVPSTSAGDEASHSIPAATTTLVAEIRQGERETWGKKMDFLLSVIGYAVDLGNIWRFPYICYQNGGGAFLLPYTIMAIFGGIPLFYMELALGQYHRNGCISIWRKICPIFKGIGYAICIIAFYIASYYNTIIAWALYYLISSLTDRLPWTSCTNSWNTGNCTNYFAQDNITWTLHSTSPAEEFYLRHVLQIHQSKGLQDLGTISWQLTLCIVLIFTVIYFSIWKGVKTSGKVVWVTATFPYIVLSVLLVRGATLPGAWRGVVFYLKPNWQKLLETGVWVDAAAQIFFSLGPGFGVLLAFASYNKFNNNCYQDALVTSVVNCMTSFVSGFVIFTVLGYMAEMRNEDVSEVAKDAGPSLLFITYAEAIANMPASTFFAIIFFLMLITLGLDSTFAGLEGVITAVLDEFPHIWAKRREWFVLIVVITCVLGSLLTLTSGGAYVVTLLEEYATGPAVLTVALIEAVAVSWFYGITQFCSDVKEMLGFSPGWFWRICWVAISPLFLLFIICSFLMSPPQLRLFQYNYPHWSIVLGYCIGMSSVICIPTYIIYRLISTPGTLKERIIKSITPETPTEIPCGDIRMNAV
Method: as §1
(§3) Whole brains were obtained from normal rats, and synaptosomal preparations were made from either whole brain (5-HT), striatum (DA) or hypothalamus (NE) by gentle disruption in 10 volumes (w/v) of 0.32 M sucrose (0-4° C.) using a Teflon-glass homogenizer. The homogenate was then centrifuged at 1000×g for 10 min. The supernatant was retained and centrifuged at 23000 g for 20 min. The resulting pellet was gently resuspended in 200 volumes of 0.32 M sucrose (0-4° C.) using a teflon-glass homogenizer. Aliquots (250 μL) of this preparation were added to tubes, along with 0.2 μCi/mL of [^3H]5-HT, [^3H]DA, or [^3H]NE, 200 μL of selected 1-arylbicyclo[3.1.0]hexanamine test compounds (to yield final concentrations of 500 nM) and 1 mL of Krebs-Ringer bicarbonate buffer (pH 7.4). […] At the end of this period, the assay was terminated by rapid filtration over Whatman GF/C glass fiber filters. The filters were rinsed 3 times with 4 ml of Krebs-Ringer bicarbonate buffer (0-4° C.), and the radioactivity retained on the filters was measured by liquid scintillation spectrometry.

[3] = target: T3, norepinephrine (NE) transport (Rattus norvegicus, UniProt Q63380); assay: Inhibition of [3H]NE uptake in rat hypothalamus synaptosomes; details: for inhibition at 0.5 µM: read-out: Uptake Inhibition % at 500 nM NE; for Uptake Inhibition % at 500 nM NE: 500 nM test compound, rat hypothalamus synaptosomes, [3H]NE, 20 min at 37° C.
T3 construct: synaptosomal preparations were made from either whole brain (5-HT), striatum (DA) or hypothalamus (NE); from tissue; host or cells: rat hypothalamus synaptosomes
T3 sequence (Q63380 1-617): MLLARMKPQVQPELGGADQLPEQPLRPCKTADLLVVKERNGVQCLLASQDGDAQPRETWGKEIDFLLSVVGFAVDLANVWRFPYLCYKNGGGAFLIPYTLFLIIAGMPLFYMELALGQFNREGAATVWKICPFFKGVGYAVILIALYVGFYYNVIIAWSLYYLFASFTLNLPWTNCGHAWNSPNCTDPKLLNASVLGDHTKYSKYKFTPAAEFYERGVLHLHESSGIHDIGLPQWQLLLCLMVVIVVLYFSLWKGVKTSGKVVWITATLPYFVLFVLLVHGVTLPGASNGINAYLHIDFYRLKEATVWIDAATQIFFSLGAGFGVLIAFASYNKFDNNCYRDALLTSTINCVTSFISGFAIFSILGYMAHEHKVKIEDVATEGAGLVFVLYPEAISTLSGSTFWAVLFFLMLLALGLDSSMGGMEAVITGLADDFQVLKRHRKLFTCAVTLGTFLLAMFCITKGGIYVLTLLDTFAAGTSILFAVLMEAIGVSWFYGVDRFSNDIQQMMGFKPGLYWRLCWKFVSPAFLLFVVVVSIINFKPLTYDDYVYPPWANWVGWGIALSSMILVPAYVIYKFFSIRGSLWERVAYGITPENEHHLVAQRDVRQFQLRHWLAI
Method: as §1, §3

[4] = target: T3, norepinephrine (NE) transport; assay: as above
[5] = target: T2, serotonin (5-HT) transport; assay: Inhibition of [3H]5-HT uptake in rat whole brain synaptosomes
dopamine (DA) transport [6] = target: T1, dopamine (DA) transport; assay: Inhibition of [3H]DA uptake in rat striatum synaptosomes
Method: as §1, §2
Target sequence in this assay (P23977 whole entry, looked up): as the sequence (P23977 whole entry) above

[7] = rat striatum synaptosomes, [3H]DA, read-out: Uptake IC50 (nM) DA
[8] = rat striatum synaptosomes, [3H]DA

Compound	inhibition at 0.5 µM (dopamine (DA) transport [1])	inhibition at 0.5 µM [2]	inhibition at 0.5 µM [3]	also measured
NC1C[C@@H]2C[C@]2(c2ccc(Cl)c(Cl)c2)C1 (stereo partly shown)	83%	75%	59%	
NC1C[C@H]2C[C@@]2(c2cccc3ccccc23)C1 (stereo partly shown)	53%	65%	76%	IC50 (dopamine (DA) transport [1]; [7]): 496 nM; IC50 [4]: 282 nM; IC50 [5]: 425 nM
Cc1ccc(C23CCC(N)C2C3)cc1 (stereo not shown)	31%	25%	50%	
CNC1CCC2(c3ccc(C)cc3)CC12 (stereo not shown)	63%	37%	89%	IC50 (dopamine (DA) transport [1]): 858 nM; IC50 [2]: 1190 nM; IC50 [3]: 313 nM
Cc1ccc(C23CCC(N(C)C)C2C3)cc1 (stereo not shown)	55%	44%	57%	
CNC1CCC2(c3ccc(Cl)c(Cl)c3)CC12 (stereo not shown)	56%	94%	63%	IC50 (dopamine (DA) transport [1]): 360 nM; IC50 [2]: 75 nM; IC50 [3]: 444 nM
CN(C)C1CCC2(c3ccc(Cl)c(Cl)c3)CC12 (stereo not shown)	34%	95%	29%	
CNC1CCC2(c3cccc4ccccc34)CC12 (stereo not shown)	29%	90%	49%	
CN(C)C1CCC2(c3cccc4ccccc34)CC12 (stereo not shown)	15%	76%	25%	
CNC1CCC2(c3ccc4ccccc4c3)CC12 (stereo not shown)	45%	90%	47%	
CN(C)C1CCC2(c3ccc4ccccc4c3)CC12 (stereo not shown)	42%	96%	26%	
NC1C[C@H]2C[C@@]2(c2ccc(Cl)c(Cl)c2)C1 (stereo partly shown)				IC50 (dopamine (DA) transport [6]): 60 nM
5-p-tolylbicyclo[3.1.0]hexan-2-amine				Uptake Inhibition % at 500 nM DA (dopamine (DA) transport [1]; [8]): 39%; Uptake Inhibition % at 500 nM 5-HT [2]: 74%; Uptake Inhibition % at 500 nM NE [3]: 42%
CN(C)C1CCC2CC21c1ccc(Cl)c(Cl)c1 (stereo not shown) [1-(3,4-dichlorophenyl)-N,N-dimethylbicyclo[3.1.0]hexan-2-amine]	99%	38%	96%	IC50 (dopamine (DA) transport [1]): 9 nM; IC50 [2]: 1240 nM; IC50 [3]: 11 nM
CNC1CCC2CC21c1ccc(Cl)c(Cl)c1 (stereo not shown) [1-(3,4-dichlorophenyl)-N-methylbicyclo[3.1.0]hexan-2-amine]	101%	15%	94%	IC50 (dopamine (DA) transport [1]): 3 nM; IC50 [3]: 18 nM; IC50 [5]: 3680 nM
NC1CCC2CC12c1ccc(Cl)c(Cl)c1 (stereo not shown) [1-(3,4-dichlorophenyl)bicyclo[3.1.0]hexan-2-amine]	86%	5%	34%	
NC1CC2CC2(c2ccc(Cl)c(Cl)c2)C1 (stereo not shown) [1-(3,4-dichlorophenyl)bicyclo[3.1.0]hexan-3-amine]	77%	89%	76%	IC50 (dopamine (DA) transport [1]; [7]): 111 nM; IC50 [4]: 126 nM; IC50 [5]: 38 nM
Cc1ccc(C23CC2CCC3N)cc1 (stereo not shown) [1-p-tolylbicyclo[3.1.0]hexan-2-amine]	18%	20%	14%	
Cc1ccc(C23CC(N)CC2C3)cc1 (stereo not shown) [1-p-tolylbicyclo[3.1.0]hexan-3-amine]	44%	21%	38%	
Cc1ccc(C23CC2CCC3N(C)C)cc1 (stereo not shown) [N,N-dimethyl-1-p-tolylbicyclo[3.1.0]hexan-2-amine]	70%	0%	71%	IC50 (dopamine (DA) transport [1]): 335 nM; IC50 [2]: > 5000 nM; IC50 [3]: 2090 nM
Cc1ccc(C23CC(N(C)C)CC2C3)cc1 (stereo not shown) [N,N-dimethyl-1-p-tolylbicyclo[3.1.0]hexan-3-amine]	0%	66%	50%	
CNC1CCC2CC21c1ccc(C)cc1 (stereo not shown) [N-methyl-1-p-tolylbicyclo[3.1.0]hexan-2-amine]	33%	4%	8%	
CNC1CC2CC2(c2ccc(C)cc2)C1 (stereo not shown) [N-methyl-1-p-tolylbicyclo[3.1.0]hexan-3-amine]	43%	69%	73%	
N-methyl-5-p-tolylbicyclo[3.1.0]hexan-2-amine				Uptake Inhibition % at 500 nM DA (dopamine (DA) transport [1]; [8]): 23%; IC50 (dopamine (DA) transport [1]; [7]): 8730 nM; Uptake Inhibition % at 500 nM 5-HT [2]: 82%; Uptake Inhibition % at 500 nM NE [3]: 81%; IC50 [4]: 74 nM; IC50 [5]: 76 nM

Source: patent US20080194696A1 (priority 2006, published 2008)
